# Laboratory results: patent US20110224231A1, “Novel Lactams as Beta Secretase Inhibitors” (Pfizer Inc., priority 2008, published 2011)
# Target: T1, soluble human BACE (Homo sapiens, UniProt P56817)
# T1 construct: cells secreting human recombinant soluble BACE; made in house; conditioned medium
# Experiment: BACE activity Cell Free Assay (ELISA of cleaved synthetic APP substrate)
# Type: biochemical
# T1 sequence (P56817 46-457 limits assumed): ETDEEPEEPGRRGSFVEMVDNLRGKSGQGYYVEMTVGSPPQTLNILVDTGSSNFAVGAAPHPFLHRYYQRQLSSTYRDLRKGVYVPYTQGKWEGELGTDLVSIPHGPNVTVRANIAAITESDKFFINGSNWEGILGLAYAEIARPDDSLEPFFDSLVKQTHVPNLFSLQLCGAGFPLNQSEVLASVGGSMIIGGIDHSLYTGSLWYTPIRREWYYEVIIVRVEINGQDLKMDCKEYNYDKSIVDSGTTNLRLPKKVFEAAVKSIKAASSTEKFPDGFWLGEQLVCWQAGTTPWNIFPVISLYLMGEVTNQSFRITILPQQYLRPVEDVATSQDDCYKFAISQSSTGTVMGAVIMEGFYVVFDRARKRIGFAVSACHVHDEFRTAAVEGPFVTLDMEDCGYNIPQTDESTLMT
row,SMILES,IC50 [µM]
1,"CC(C)Oc1cc(CN2CC[C@]3(C=CC(=O)N3c3cnccn3)C[C@@H]2C)ccc1O [#132, (5R,7S)-8-(4-hydroxy-3-isopropoxybenzyl)-7-methyl-1-pyrazin-2-yl-1,8-diazaspiro[4.5]dec-3-en-2-one]",0.001 to 1
2,"CC1CC2(CCC(=O)N2c2cccc(F)c2)CCN1Cc1cccc(OCc2nc(C3CC3)no2)c1 (racemic) [Example 86, Racemic (5R,7S),(5S,7R)-8-{3-[(3-cyclopropyl-1,2,4-oxadiazol-5-yl)methoxy]benzyl}-1-(3-fluorophenyl)-7-methyl-1,8-diazaspiro[4.5]decan-2-one]",100 to 300
3,"COc1cccc(-c2csc(CN3CCC4(C=CC(=O)N4c4cccc(F)c4)CC3C)n2)c1 (racemic) [Example 72, Racemic (5R,7S),(5S,7R)-1-(3-fluorophenyl)-8-{[4-(3-methoxyphenyl)-1,3-thiazol-2-yl]methyl}-7-methyl-1,8-diazaspiro[4.5]dec-3-en-2-one]",10 to 100
4,"CC1CC2(CCC(=O)N2c2cccc(F)c2)CCN1Cc1nc(-c2ccc(C#N)cc2)cs1 (racemic) [Example 54, Racemic 4-(2-{[(5R,7S),(5S,7R)-1-(3-fluorophenyl)-7-methyl-2-oxo-1,8-diazaspiro[4.5]dec-8-yl]methyl}-1,3-thiazol-4-yl)benzonitrile]",100 to 300
5,"CC1CC2(CCC(=O)N2c2cccc(F)c2)CCN1Cc1n[nH]c2ccc(Cl)cc12 (racemic) [Example 78, Racemic (5R,7S),(5S,7R)-8-[(5-chloro-1H-indazol-3-yl)methyl]-1-(3-fluorophenyl)-7-methyl-1,8-diazaspiro[4.5]decan-2-one]",100 to 300
6,"CC1CC2(CCC(=O)N2c2cccc(F)c2)CCN1Cc1cccc(OC2CCCC2)c1 (racemic) [Example 50, Racemic (5R,7S),(5S,7R)-8-[3-(cyclopentyloxy)benzyl]-1-(3-fluorophenyl)-7-methyl-1,8-diazaspiro[4.5]decan-2-one]",100 to 300
7,"CC1CC2(C=CC(=O)N2c2cccc(F)c2)CCN1Cc1cccc(OCc2nc(C3CC3)no2)c1 (racemic) [Example 68, Racemic (5R,7S),(5S,7R)-8-{3-[(3-cyclopropyl-1,2,4-oxadiazol-5-yl)methoxy]benzyl}-1-(3-fluorophenyl)-7-methyl-1,8-diazaspiro[4.5]dec-3-en-2-one]",10 to 100
8,C[C@H]1C[C@@]2(CCC(=O)N2c2cccc(F)c2)CCN1Cc1ccc(O)c(Cl)c1 [#214],1 to 10
